In patent US20130109693A1, “DERIVATIVES OF PYRIDO [3,2-D] PYRIMIDINE, METHODS FOR PREPARATION THEREOF AND THERAPEUTIC USES THEREOF” (UNIVERSITE D'ORLEANS, priority 2010, published 2013):

Assays:
HCT 116 = experiment: Cytotoxicity on human cells, HCT 116 (colon); assay type: cell-based; conditions: exposed 24 h and 48 h, 0.1 to 25 μM
Method: (§1) […] Dosages on Human cells (Huh7, Caco, MDA-MB 231, HCT 116, PC3, NCl, Fibroblast)
(§2) Cytotoxicity: This method is based on an automated imaging analysis. 4.10^3 cells were cultivated on 96-well plates and thus left for 24 hours so that they may bind, be distributed and proliferate.
(§3) These cells were then exposed for 24 h and 48 h to increasing concentrations of the compounds of the invention, from 0.1 to 25 μM in a final volume of 80 μL of culture medium. The cells are then set with a 4% paraformaldehyde solution and the nuclei are colored with Hoechst 3342 and counted according to automated imaging quantification.
(§4) All the cell lines were cultivated in a DMEM or RPMI (Invitrogen) medium. All these media were completed with antibiotics (penicillin-streptomycin)(Lonza) and 10% by volume of foetal calf serum (Invitrogen). The cells were cultivated at 37° C. with 5% of CO2. The treatments with the molecules to be tested were carried out with increasing concentrations. […] The control experiments were also conducted by using suitable dilutions of DMSO (maximum 1% DMSO). Cell viability was determined by measuring the reduction of MTS as described in the article of Ribas J, Boix J. (2004). Cell differentiation caspase inhibition and macromolecular synthesis blockage but not BCL-2 or BCL-XL proteins protect SH-SY5Y cells from apoptosis triggered by two CDK inhibitory drugs. Exp. Cell Res., 295: 9-24.

PC3 = experiment: Cytotoxicity on human cells, PC3 (prostate); assay type: cell-based; conditions: PC-3, human cells, exposed 24 h and 48 h, 0.1 to 25 μM
Method: as §1, §2, §3, §4

NCI = experiment: Cytotoxicity on human cells, NCI (lung); assay type: cell-based; conditions: exposed 24 h and 48 h, 0.1 to 25 μM
Method: as §1, §2, §3, §4

Caco = experiment: Cytotoxicity on human cells, Caco (colon); assay type: cell-based; conditions: exposed 24 h and 48 h, 0.1 to 25 μM
Method: as §1, §2, §3, §4

MDA-MB 231 = experiment: Cytotoxicity on human cells, MDA-MB 231 (breast); assay type: cell-based; conditions: MDA-MB-231, human cells, exposed 24 h and 48 h, 0.1 to 25 μM
Method: as §1, §2, §3, §4

Huh7 = experiment: Cytotoxicity on human cells, Huh7 (liver); assay type: cell-based; conditions: Huh-7, human cells, exposed 24 h and 48 h, 0.1 to 25 μM
Method: as §1, §2, §3, §4

CDK5 = target: T1, CDK5 (Homo sapiens, UniProt Q00535); experiment: CDK5 kinase inhibition (histone H1, [γ-33P] ATP, buffer C); assay type: biochemical; conditions: 15 μM ATP, 30° C., recombinant; read-out: IC50 Kinases CDK5
T1 construct: made in house
Method: (§5) The activities for inhibiting protein kinases of the compounds of the invention are tested according to the following general procedure:
Buffer C: 60 mM β-glycerophosphate, 15 mM p-nitrophenyl-phosphate, 25 mM Mops (pH 7.2), 5 mM EGTA, 15 mM MgCl2, 1 mM DTT, 1 mM of sodium vanadate
(§6) The kinase activities are dosed in buffers A or C, at 30° C., at a final concentration of ATP of 15 μM. The values of the blanks were subtracted and the activities are expressed as a % of the maximum activity, i.e. in the absence of inhibitors. The controls were carried out with suitable dilutions of DMSO.
CDK5 (humane, recombinant) was prepared as described earlier (Leclerc, S.; Garnier, M.; Hoessel, R.; Marko, D.; Bibb, J. A.; Snyder, G. L.; Greengard, P.; Biernat, J.; Mandelkow, E.-M.; Eisenbrand, G.; Meijer, L. Indirubins inhibit glycogen synthase kinase-3β and CDK5/p25, two kinases involved in abnormal tau phosphorylation in Alzheimer's disease—A property common to most CDK inhibitors? J. Biol. Chem. 2001, 276, 251-260; Bach S, Knockaert M, Reinhardt J, Lozach O, Schmitt S, Baratte B et al. (2005). Roscovitine targets, protein kinases and pyridoxal kinase. J. Biol Chem 280: 31208-31219). Its kinase activity was analyzed in the buffer C, with 1 mg of histone H1/mL, in the presence of 15 μM of [γ-^33P] ATP (3,000 Ci/mmol; 10 mCi/mL) in a final volume of 30 μl. After 30 mins of incubation at 30° C., 25 μl of supernatant aliquots were deposited on 2.5×3 cm pieces of phosphocellulose Whatman P81 paper, and after 20 seconds, the filters were washed five times (for at least 5 minutes every time) in a solution of 10 mL phosphoric acid/liter of water. The wet filters were counted in the presence of 1 mL of ACS scintillator fluid (Amersham).

DYRK1A = DYRK1A (Homo sapiens, UniProt Q13627); experiment: DYRK1A kinase inhibition (Woodtide substrate, buffer A); assay type: biochemical; conditions: 15 μM ATP, 30° C., recombinant GST fusion; read-out: IC50 Kinases DYRK1A
Method: as §5
(§7) Buffer A: 10 mM MgCl2, 1 mM EGTA, 1 mM DTT, 25 mM Tris-HCl pH 7.5 and 50 μg heparin/mL.
as §6

GSK-3αβ = GSK-3αβ kinase inhibition (GS-1 substrate, buffer A); assay type: biochemical; conditions: 15 μM ATP, 30° C., native, pig brain; read-out: IC50 Kinases GSK3
Method: as §5, §7, §6
GSK-3αβ (from pig brain, native) was assayed by using a specific substrate of GSK-3 (GS-1: […]pEDEEE)(Sp represents a phosphorylated serine) (Primot, A., Baratte, B., Gompel, M., Borgne, A., Liabeuf, S., Romette, J. L., Costantini, F. and Meijer, L., 2000. Purification of GSK-3 by affinity chromatography on immobilized axin. Protein Expr. & Purif. 20 (3), 394-404). GS-1 was synthesized by Millegen (Labège, France). Its kinase activity was analyzed in the buffer A, with 1 mg of histone H1/mL, in the presence of 15 μM of [γ-^33P] ATP (3,000 Ci/mmol; 10 mCi/mL) in a final volume of 30 μl. After 30 mins of incubation at 30° C., 25 μl of supernatant aliquots were deposited on 2.5×3 cm pieces of phosphocellulose Whatman P81papier, and after 20 seconds, the filters were washed five times (for at least 5 minutes every time) in a solution of 10 mL of phosphoric acid/liter of water. The wet filters were counted in the presence of 1 mL of ACS scintillator fluid (Amersham).

fibroblast = experiment: Cytotoxicity on human cells, fibroblast; assay type: cell-based; conditions: exposed 24 h and 48 h, 0.1 to 25 μM
Method: as §1, §2, §3, §4

T1 sequence (Q00535 whole entry): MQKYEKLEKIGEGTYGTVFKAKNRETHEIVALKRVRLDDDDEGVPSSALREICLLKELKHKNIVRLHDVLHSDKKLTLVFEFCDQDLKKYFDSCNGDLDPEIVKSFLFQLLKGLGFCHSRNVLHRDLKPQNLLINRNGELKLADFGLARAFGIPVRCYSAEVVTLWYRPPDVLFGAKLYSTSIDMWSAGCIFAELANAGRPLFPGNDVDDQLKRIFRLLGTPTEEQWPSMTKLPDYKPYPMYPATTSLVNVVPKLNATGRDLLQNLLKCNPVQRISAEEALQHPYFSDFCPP
T1 sequence (Q15078 99-307 partner limits assumed): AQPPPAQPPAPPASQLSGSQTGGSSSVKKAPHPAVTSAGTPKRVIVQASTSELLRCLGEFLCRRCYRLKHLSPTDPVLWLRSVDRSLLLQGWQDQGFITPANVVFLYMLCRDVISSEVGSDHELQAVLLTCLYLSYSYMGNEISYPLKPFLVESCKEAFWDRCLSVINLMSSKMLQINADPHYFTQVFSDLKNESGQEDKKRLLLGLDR

Structure (SMILES) | IC50 (HCT 116) | IC50 (PC3) | IC50 (NCI) | IC50 (Caco) | IC50 (MDA-MB 231) | IC50 (Huh7) | melting point | IC50 (CDK5) | IC50 (DYRK1A) | IC50 (GSK-3αβ) | IC50 (fibroblast)
COc1ccc(-c2cnc3cnc(-c4ccc(O)cc4)nc3c2)cn1 [Compound 32, 2-(4-Hydroxyphenyl)-7-(3-(6-methoxy)-pyridinyl)-pyrido[3,2-d]pyrimidine] | > 25 µM | > 25 µM | 25 µM | > 25 µM | 25 µM | > 25 µM | 246 to 248 °C | 1.2 µM | > 10 µM | > 10 µM | 10 µM
Oc1ccc(-c2ncc3ncc(-c4cccnc4)cc3n2)cc1 [Compound 33, 2-(4-Hydroxyphenyl)-7-(3-pyridinyl)-pyrido[3,2-d]pyrimidine] | > 25 µM | > 25 µM | > 25 µM | > 25 µM | > 25 µM | > 25 µM | > 268 °C | 0.65 µM | > 10 µM | > 10 µM | > 25 µM
Oc1ccc(-c2ncc3ncc(-c4ccncc4)cc3n2)cc1 [Compound 34, 2-(4-Hydroxyphenyl)-7-(4-pyridinyl)-pyrido[3,2-d]pyrimidine] | 10 µM | > 25 µM | 5 µM | > 25 µM | > 25 µM | > 25 µM | > 268 °C | 0.13 µM | > 10 µM | > 10 µM | 15 µM
Oc1ccc(-c2ncc3ncc(-c4ccco4)cc3n2)cc1 [Compound 35, 2-(4-Hydroxyphenyl)-7-(2-furyl)-pyrido[3,2-d]pyrimidine] | 5 µM | 20 µM | 7 µM | > 25 µM | 4 µM | 15 µM | 261 to 263 °C | 1.8 µM | > 10 µM | > 10 µM | 6 µM
Oc1ccc(-c2ncc3ncc(-c4ccsc4)cc3n2)cc1 [Compound 37, 2-(4-Hydroxyphenyl)-7-(3-thiophyl)-pyrido[3,2-d]pyrimidine] | 15 µM | > 25 µM | 10 µM | > 25 µM | > 25 µM | > 25 µM | 248 to 250 °C | 0.12 µM | > 10 µM | > 10 µM | > 25 µM
Oc1ccc(-c2ncc3ncc(-c4cccs4)cc3n2)cc1 [Compound 38, 2-(4-Hydroxyphenyl)-7-(2-thiophyl)-pyrido[3,2-d]pyrimidine] | 4 µM | 25 µM | 3 µM | > 25 µM | > 25 µM | > 25 µM | 240 to 242 °C | 0.11 µM | > 10 µM | > 10 µM | 2 µM
Oc1ccc(-c2ncc3ncc(Nc4nc5ccccc5s4)cc3n2)cc1 [Compound 47, 2-(4-Hydroxyphenyl)-7-(2-benzothiazolamino)-pyrido[3,2-d]pyrimidine] | > 25 µM | > 25 µM | > 25 µM | > 25 µM | > 25 µM | > 25 µM | > 268 °C | 5.3 µM | > 10 µM | > 10 µM | > 25 µM
Oc1ccc(-c2ncc3ncc(Nc4ccon4)cc3n2)cc1 [Compound 48, 2-(4-Hydroxyphenyl)-7-(3-isoxazolamino)-pyrido[3,2-d]pyrimidine] | 9 µM | 20 µM | 3 µM | 20 µM | 12 µM | 25 µM | > 268 °C | 2.1 µM | 2 µM | > 10 µM | 15 µM
Cc1csc(Nc2cnc3cnc(-c4ccc(O)cc4)nc3c2)n1 [Compound 50, 2-(4-Hydroxyphenyl)-7-(2-(4-methyl)thiazolamino)-pyrido[3,2-d]pyrimidine] | > 25 µM | > 25 µM | 25 µM | > 25 µM | 25 µM | 10 µM | > 268 °C | > 10 µM | > 10 µM | > 10 µM | > 25 µM
COc1ccc(Nc2cnc3cnc(-c4ccc(O)cc4)nc3c2)cc1 [Compound 51, 2-(4-Hydroxyphenyl)-7-(4-methoxyphenylamino)-pyrido[3,2-d]pyrimidine] | 15 µM | 2 µM | 10 µM | 12 µM | 15 µM | 15 µM | 134 to 136 °C | 1.8 µM | > 10 µM | 7.3 µM | 10 µM
Oc1ccc(-c2ncc3ncc(Nc4ncccn4)cc3n2)cc1 [Compound 52, 2-(4-Hydroxyphenyl)-7-(2-pyrimidinylamino)-pyrido[3,2-d]pyrimidine] | 2 µM | 1.5 µM | 1.5 µM | 5 µM | 2.5 µM | 25 µM | > 268 °C | 7.6 µM | > 10 µM | > 10 µM | 2 µM
Cc1ncccc1Nc1cnc2cnc(-c3ccc(O)cc3)nc2c1 [Compound 53, 2-(4-Hydroxyphenyl)-7-(3-(2-methyl)-pyridinylamino)-pyrido[3,2-d]pyrimidine] | > 25 µM | 6 µM | 15 µM | 15 µM | 9 µM | 12 µM | 186 to 188 °C | > 10 µM | > 10 µM | > 10 µM | 10 µM
N#Cc1ccc(Nc2cnc3cnc(-c4ccc(O)cc4)nc3c2)nc1 [Compound 54, 2-(4-Hydroxyphenyl)-7-(2-(5-cyano)pyridinylamino)-pyrido[3,2-d]pyrimidine] | > 25 µM | > 25 µM | 20 µM | > 25 µM | 12 µM | > 25 µM | > 268 °C | 4 µM | > 10 µM | 5.5 µM | > 25 µM
